Results on 19 molecules are retold here after ChEMBL document CHEMBL1149504, “Design and synthesis of substituted quinolines as novel and selective melanin concentrating hormone antagonists as anti-obesity agents” (Bioorg Med Chem Lett, 2006).

Molecules are shown by their SMILES. Bounds are passed on as bounds.

Assay [1] addresses Melanin-concentrating hormone receptor 1 (Homo sapiens, UniProt Q99705). Nature of the assay: Binding affinity to MCHR1 by radioligand binding assay.
In assay [2] the target is T1, 5-hydroxytryptamine receptor 2C (Homo sapiens, UniProt P28335).
T1 sequence (P28335 whole entry): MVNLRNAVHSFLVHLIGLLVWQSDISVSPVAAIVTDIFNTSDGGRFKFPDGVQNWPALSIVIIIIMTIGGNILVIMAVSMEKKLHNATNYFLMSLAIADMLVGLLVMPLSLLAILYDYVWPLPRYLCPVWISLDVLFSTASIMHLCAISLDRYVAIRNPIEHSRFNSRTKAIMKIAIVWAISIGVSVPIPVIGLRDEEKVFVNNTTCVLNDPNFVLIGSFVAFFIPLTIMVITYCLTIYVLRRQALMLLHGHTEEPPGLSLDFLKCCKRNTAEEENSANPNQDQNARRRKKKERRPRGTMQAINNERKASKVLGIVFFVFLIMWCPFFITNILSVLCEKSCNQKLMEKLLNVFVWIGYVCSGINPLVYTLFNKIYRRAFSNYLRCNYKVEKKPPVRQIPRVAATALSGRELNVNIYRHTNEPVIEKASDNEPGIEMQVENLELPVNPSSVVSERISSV
Put plainly: Displacement of [3H]mesulergine from 5HT2C receptor.

Chain of Melanin-concentrating hormone receptor 1 (Q99705 whole entry): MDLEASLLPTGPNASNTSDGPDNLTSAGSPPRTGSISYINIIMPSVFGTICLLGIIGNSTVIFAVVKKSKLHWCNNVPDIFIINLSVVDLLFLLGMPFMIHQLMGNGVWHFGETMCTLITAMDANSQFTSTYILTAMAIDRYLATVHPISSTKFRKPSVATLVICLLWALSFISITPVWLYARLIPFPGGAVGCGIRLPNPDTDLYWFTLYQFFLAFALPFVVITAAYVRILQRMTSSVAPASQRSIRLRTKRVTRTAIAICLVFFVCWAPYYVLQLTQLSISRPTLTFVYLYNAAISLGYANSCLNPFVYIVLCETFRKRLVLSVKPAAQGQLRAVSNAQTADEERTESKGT

A word on the Ki: it is the dissociation constant of the complex between target and ligand, obtained from inhibition or displacement. Lower therefore signals higher affinity. A word on the IC50: it is the point on the concentration scale where inhibition reaches its midpoint. Consider `CCN(CC)Cc1cnc2c(CNC(=O)c3ccc(-c4ccc(F)cc4)nc3)cccc2c1`, for which the Ki in assay [1] amounted to 0.31 µM. In assay [2], this molecule came in with an IC50 of 14.1 µM.
In the same order, the values of `CCN(CC)Cc1cnc2c(CNC(=O)c3ccc(-c4ccc(F)cc4)cc3)cccc2c1` are 0.102 µM and 4.16 µM.
In the same order, the values of `O=C(NCc1cccc2cc(CN3CCOCC3)cnc12)c1ccc(-c2ccc(F)cc2)cc1` are 1.41 µM and 7.47 µM.
For `O=C(NCc1cccc2cc(CN3CCC(O)CC3)cnc12)c1ccc(-c2ccc(F)cc2)cc1` the same measures were 0.195 µM and 2.81 µM.
In assay [1], `O=C(NCc1cccc2cc(CN3CC[C@H](O)C3)cnc12)c1ccc(-c2ccc(F)cc2)cc1` showed a Ki of 0.142 µM. In assay [2], this molecule registered an IC50 of 3.59 µM.
In the same order, the values of `CN(C)Cc1cnc2c(Cn3cnc4cc(-c5ccc(Cl)cc5)sc4c3=O)cccc2c1` are 0.197 µM and 1.31 µM.
In the same order, the values of `CS(=O)(=O)C1CCN(Cc2cnc3c(CNC(=O)c4ccc(-c5ccc(F)cc5)cc4)cccc3c2)CC1` are 0.31 µM and over 100 µM.
In the same order, the values of `CCN(CC)Cc1cnc2c(Cn3cnc4cc(-c5ccc(Cl)cc5)sc4c3=O)cccc2c1` are 0.126 µM and 25.2 µM.
In turn, `O=C(NCc1cccc2cc(CN3CCOCC3)cnc12)c1ccc(-c2ccc(F)cc2)nc1` had a Ki in assay [1] of 20.1 µM. For the same molecule, the IC50 in assay [2] was over 100 µM.
For `CN(Cc1cccc2cc(CN3CCCCC3)cnc12)C(=O)c1ccc(-c2ccc(F)cc2)cc1` the same measures were 0.031 µM and 4.19 µM.
In the same order, the values of `CN(CC(=O)N(C)C)Cc1cnc2c(Cn3cnc4cc(-c5ccc(Cl)cc5)sc4c3=O)cccc2c1` are 0.136 µM and over 100 µM.
For `O=C(NCc1cccc2cc(CN3CCC(O)CC3)cnc12)c1ccc(-c2ccc(F)cc2)nc1` the same measures were 0.803 µM and 14.6 µM.
`CN(C)Cc1cnc2c(CNC(=O)c3ccc(-c4ccc(F)cc4)nc3)cccc2c1` registered a Ki in assay [1] of 0.414 µM. This molecule had an IC50 in assay [2] of 10.3 µM.
For `CN1CCN(Cc2cnc3c(CNC(=O)c4ccc(-c5ccc(F)cc5)nc4)cccc3c2)CC1` the same measures were 3.54 µM and 20.2 µM.
For `O=C(NCc1cccc2cc(CN3CC[C@H](O)C3)cnc12)c1ccc(-c2ccc(F)cc2)nc1`, in assay [1], the Ki was found to be 1.15 µM. The same molecule displayed an IC50 in assay [2] of 16.5 µM.
For `O=c1c2sc(-c3ccc(Cl)cc3)cc2ncn1Cc1cccc2cc(CN3CCCC3)cnc12` the same measures were 0.091 µM and over 100 µM.
For `CS(=O)(=O)N1CCN(Cc2cnc3c(Cn4cnc5cc(-c6ccc(Cl)cc6)sc5c4=O)cccc3c2)CC1` the same measures were 0.773 µM and over 100 µM.
For `O=c1c2sc(-c3ccc(Cl)cc3)cc2ncn1Cc1cccc2cc(CN3CCC(O)CC3)cnc12` the same measures were 0.051 µM and over 100 µM.
As to `CN1CCN(Cc2cnc3c(Cn4cnc5cc(-c6ccc(Cl)cc6)sc5c4=O)cccc3c2)CC1`, the affinity in assay [1], expressed as Ki, was 0.11 µM. In assay [2], this molecule showed an IC50 of over 100 µM.
